Test results reported in patent publication US12594278B2, “Method for treatment of muscular dystrophy” (CHILDREN'S NATIONAL MEDICAL CENTER, priority 2019, dated 2026).

Tests used:
B6A/J mice [1] = assay: 10-week batimastat treatment of 12Mo B6A/J mice, gastrocnemius histopathology; format: in vivo, mouse
Protocol: (§1) Whether this effect of batimastat to repress FAP adipogenesis can improve muscle histopathology was tested in vivo. 12Mo B6A/J mice were treated for 10 weeks with batimastat (2 mg/kg i.p. 3× weekly). […] To determine if this reduction in adipogenic replacement was due to an effect on just FAP differentiation or also on FAP proliferation, FAP accumulation was quantified by PDGFRα labeling and no effect of batimastat treatment on FAP number was found (FIG. 12). […] Thus, inhibition of adipogenesis by batimastat is not due to reduced FAP numbers or improved myofiber repair. To further confirm the ability of batimastat to prevent dysferlinopathic muscle from injury-triggered FAP adipogenesis, we employed the repeat notexin-induced TA injury approach which induces significant adipogenic replacement of the muscle (FIG. 6D and FIG. 6E). […] Given that FAP numbers are unaffected by batimastat treatment, it was examined whether these batimastat treatment causes cells to adopt a fibrogenic fate by blocking their adipogenic differentiation. However, no change in intra-muscular fibrosis was observed as a result of batimastat treatment in either the gastrocnemius or injured TA (FIG. 12). Taken together, the above results both confirm the essential nature of FAP adipogenesis for the adipogenic conversion of dysferlinopathic muscle, and highlight the potential of batimastat to arrest the progressive and even late stage adipogenic replacement of dysferlinopathic muscle.
Immunohistochemical Analysis of Muscle Sections. Frozen sections 8 μm thick were cut from human biopsies and the midbelly of mouse muscles. Lipid was visualized using an Oil Red O staining kit (American MasterTech, #KTORO) according to manufacturer's instructions. […]
(§2) Microscopy and Image Analysis. […] Perilipin-1 quantification was performed by thresholding the image to exclude non-specific staining and then calculating the area of each lipid deposit encircled by perlipin-1 (excluding those in the epi- or perimysium) using MetaMorph software (Molecular Devices). The total area encircled by perilipin-1 was calculated for all lipid deposits across the muscle and expressed relative to the total cross-sectional area. PDGFRα and AnxA2 positive area was calculated using CellSens software (Olympus) by thresholding to remove non-specific staining and calculating the total positive area (again, excluding any epi- or perimysial staining) relative to the entire muscle cross-section.
For in vivo studies, 12Mo B6A/J mice were treated thrice weekly with batimastat (Sigma-Aldridge, #SML0041), 2 mg/kg i.p. for 10 weeks. At the end of the treatment period, the effect of batimastat on disease pathology was evaluated by quantification of perilipin-1 marked lipid area in the gastrocnemius and compared to untreated controls. […]

B6A/J mice [2] = assay: Repeat notexin-induced TA injury in batimastat-treated B6A/J mice; format: in vivo, mouse
Protocol: as §1, with “Taken together, the above results both confirm the essential nature of FAP adipogenesis for the adipogenic conversion of dysferlinopathic muscle, and highlight the potential of batimastat to arrest the progressive and even late stage adipogenic replacement of dysferlinopathic muscle.” left out
as §2, with “cross-section. […]” for “cross-section.”

mdx mice = conditions: previously shown; cited from earlier work
[3] = 12Mo B6A/J mice, 2 mg/kg i.p. 3× weekly for 10 weeks

With `CNC(=O)[C@H](Cc1ccccc1)NC(=O)[C@H](CC(C)C)[C@H](CSc1cccs1)C(=O)NO` [batimastat] the “FAP number (PDGFRα labeling) in gastrocnemius” value (B6A/J mice [1]; [3]) was “no effect”, the “extent of myofiber central nucleation” value (B6A/J mice [1]; [3]) was “did not decrease” and the “perilipin-1 labeled area in gastrocnemius” value (B6A/J mice [1]; 12Mo B6A/J mice, 2 mg/kg i.p. 3× weekly for 10 weeks, vs untreated mice) was “significantly reduced”. For the same compound, the “intra-muscular fibrosis in gastrocnemius (Masson's trichrome)” value (B6A/J mice [1]; batimastat 2 mg/kg i.p. 3× weekly for 10 weeks) was “no change”, the “reduction in perilipin-1 positive area in TA following repeat notexin injury” value (B6A/J mice [2]; 3 notexin injuries during 10 weeks of batimastat 2 mg/kg i.p. 3× weekly, vs untreated mice) was roughly 40% and the “intra-muscular fibrosis in injured TA (Masson's trichrome)” value (B6A/J mice [2]; 3 repeat notexin injuries, batimastat 2 mg/kg i.p. 3× weekly for 10 weeks) was “no change”. The “FAP accumulation caused by repeat notexin injuries (PDGFRα)” value (B6A/J mice [2]; TA, batimastat 2 mg/kg i.p. 3× weekly for 10 weeks) was “did not reduce”, the “fibrosis in mdx mice” value (mdx mice) was “reduce fibrosis” and the “muscle function in mdx mice” value (mdx mice) was “increase muscle function”.
